Laboratory results: ChEMBL document CHEMBL1201862, “PubChem BioAssay data set” (2004)
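Step 1: Grow cells in 96-well plates. Step 2: Expose to compound for 48 hours at 5 concentrations. Step 3: Interpolate endpoints linearly; if unreached, use highest concentration. The concentration for 50% growth inhibition is given as GI50.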 Calls of active or inactive are those of the source. Cut-off read from the data, not from the text of the source: active = GI50 up to about 1.1 µM and inactive = higher.

What was measured:
Experiment in all cases: DTP human tumour cell line panel, 48 h
[1] = test system: SN12C
[2] = test system: DU-145
[3] = test system: MDA-MB-435
[4] = test system: MDA-MB-231
[5] = test system: SR
[6] = test system: OVCAR-8
[7] = test system: OVCAR-5
[8] = test system: CAKI-1
[9] = test system: OVCAR-4
[10] = test system: NCI/ADR-RES
[11] = test system: SNB-75
[12] = test system: HCT-116
[13] = test system: UACC-257
[14] = test system: Hs-578T
[15] = test system: BT-549
[16] = test system: UACC-62
[17] = test system: TK-10
[18] = test system: 786-0
[19] = test system: OVCAR-3
[20] = test system: SF-539
[21] = test system: EKVX
[22] = test system: A549
[23] = test system: SF-295
[24] = test system: KM12
[25] = test system: NCI-H226
[26] = test system: U-251
[27] = test system: PC-3
[28] = test system: HOP-62
[29] = test system: SK-MEL-2
[30] = test system: HOP-92
[31] = test system: Malme-3M
[32] = test system: NCI-H522
[33] = test system: HL-60
[34] = test system: SF-268
[35] = test system: HCT-15
[36] = test system: LOX IMVI
[37] = test system: ACHN
[38] = test system: MCF7
[39] = test system: SK-MEL-5
[40] = test system: MDA-N
[41] = test system: HCC 2998
[42] = test system: K562
[43] = test system: RXF 393
[44] = test system: SK-MEL-28
[45] = test system: RPMI-8226
[46] = test system: NCI-H460
[47] = test system: MOLT-4
[48] = test system: HT-29
[49] = test system: T47D
[50] = test system: UO-31
[51] = test system: SNB-19
[52] = test system: SK-OV-3
[53] = test system: A498
[54] = test system: CCRF-CEM
[55] = test system: SW-620
[56] = test system: IGROV-1

Which GI50 [1] does the source give for `Nc1nc(Cl)c(N)c(NCC2(CO)CCCC2)n1` here?
Its GI50 is > 100 µM (inactive).

And the GI50 [2]?
The GI50 was > 100 µM (inactive).

And the GI50 [3]?
Its GI50 is 80 µM (inactive).

And the GI50 [4]?
The GI50 was > 100 µM (inactive).

And the GI50 [5]?
Its GI50 is > 100 µM (inactive).

What about the GI50 [6] of the same compound?
Its GI50 is > 100 µM (inactive).

What about the GI50 [7] of the same compound?
The GI50 was > 100 µM (inactive).

And the GI50 [8]?
The GI50 was > 100 µM (inactive).

And the GI50 [9]?
The GI50 was > 100 µM (inactive).

What about the GI50 [10] of the same compound?
The GI50 was > 100 µM (inactive).

What about the GI50 [11] of the same compound?
Its GI50 is > 100 µM (inactive).

What about the GI50 [12] of the same compound?
Its GI50 is > 100 µM (inactive).

And the GI50 [13]?
The GI50 was 71.6 µM (inactive).

And the GI50 [14]?
Its GI50 is > 100 µM (inactive).

What about the GI50 [15] of the same compound?
Its GI50 is 50.5 µM (inactive).

And the GI50 [16]?
The GI50 was 1.83 µM (inactive).

What about the GI50 [17] of the same compound?
The GI50 was > 100 µM (inactive).

And the GI50 [18]?
Its GI50 is > 100 µM (inactive).

What about the GI50 [19] of the same compound?
Its GI50 is 62.1 µM (inactive).

What about the GI50 [20] of the same compound?
Its GI50 is > 100 µM (inactive).

And the GI50 [21]?
The GI50 was 20.7 µM (inactive).

What about the GI50 [22] of the same compound?
The GI50 was > 100 µM (inactive).

What about the GI50 [23] of the same compound?
Its GI50 is 86.7 µM (inactive).

And the GI50 [24]?
Its GI50 is > 100 µM (inactive).

What about the GI50 [25] of the same compound?
Its GI50 is > 100 µM (inactive).

What about the GI50 [26] of the same compound?
The GI50 was > 100 µM (inactive).

And the GI50 [27]?
Its GI50 is > 100 µM (inactive).

What about the GI50 [28] of the same compound?
Its GI50 is 88.5 µM (inactive).

What about the GI50 [29] of the same compound?
Its GI50 is > 100 µM (inactive).

What about the GI50 [30] of the same compound?
The GI50 was > 100 µM (inactive).

What about the GI50 [31] of the same compound?
The GI50 was > 100 µM (inactive).

What about the GI50 [32] of the same compound?
The GI50 was > 100 µM (inactive).

And the GI50 [33]?
Its GI50 is > 100 µM (inactive).

And the GI50 [34]?
The GI50 was > 100 µM (inactive).

What about the GI50 [35] of the same compound?
The GI50 was > 100 µM.

And the GI50 [36]?
The GI50 was 97.9 µM (inactive).

What about the GI50 [37] of the same compound?
Its GI50 is > 100 µM (inactive).

What about the GI50 [38] of the same compound?
Its GI50 is 90.6 µM (inactive).

And the GI50 [39]?
The GI50 was 30.8 µM (inactive).

And the GI50 [40]?
The GI50 was > 100 µM (inactive).

What about the GI50 [41] of the same compound?
The GI50 was > 100 µM (inactive).

And the GI50 [42]?
Its GI50 is 77.1 µM (inactive).

What about the GI50 [43] of the same compound?
Its GI50 is 78.7 µM (inactive).

And the GI50 [44]?
Its GI50 is > 100 µM (inactive).

What about the GI50 [45] of the same compound?
The GI50 was > 100 µM (inactive).

And the GI50 [46]?
Its GI50 is > 100 µM (inactive).

What about the GI50 [47] of the same compound?
The GI50 was 74.8 µM (inactive).

What about the GI50 [48] of the same compound?
Its GI50 is > 100 µM (inactive).

And the GI50 [49]?
The GI50 was 826 nM (active).

What about the GI50 [50] of the same compound?
The GI50 was > 100 µM (inactive).

What about the GI50 [51] of the same compound?
Its GI50 is > 100 µM (inactive).

And the GI50 [52]?
The GI50 was 10.4 µM (inactive).

And the GI50 [53]?
Its GI50 is 44.7 µM (inactive).

What about the GI50 [54] of the same compound?
The GI50 was > 100 µM (inactive).

What about the GI50 [55] of the same compound?
The GI50 was > 100 µM (inactive).

What about the GI50 [56] of the same compound?
Its GI50 is 84.7 µM (inactive).
